Where “and” joins values, the source holds several entries; their conditions need not be identical. Identical values can stand only once.
Settings: rat; liver microsomes; pH 7.4; 15.0 min; 1.0 µM

For `Cn1cc(S(=O)(=O)N2CCOCC2)cc1C(=O)Nc1ccc(Cl)c(C(F)(F)F)c1`, the half-life was over 30 min.

`O=[S+]([O-])(Nc1cccc2cccnc12)c1ccc(NCc2ccc(Cl)cc2O)cc1` showed a half-life of 2.4 min.

With `COC(=O)c1cc2occc2n1Cc1nc(-c2ccc(C)cc2)oc1C` the half-life was 3.86 min.

With `Cc1ccc(S(=O)(=O)Nc2cnccc2C(=O)NCCc2ccccc2)cc1` the half-life was 4.9 min.

In the case of `O=C(Nc1cccc(C(F)(F)F)c1)c1cc2nc(-c3ccccc3)cc(C(F)(F)F)n2n1`, the half-life is reported as over 30 min.

Compound `Cc1ccc(-n2nc3c(=O)n(CCCC(=O)NCc4ccccc4F)nc(C)c3c2C)cc1` has a half-life of 2.6 min.

For `CCc1ccc(NC(=O)c2cc3ncccn3n2)cc1`, the half-life was 2.8 min.

`Cc1nc(-c2ccco2)cc([C@H]2CN3CC[C@H]2C[C@@H]3CNC(=O)NC2CCCCC2)n1` showed a half-life of 29.6 min.

Work on `COc1ccc(C)cc1-n1nnnc1Sc1ncnc2scc(-c3ccc(Br)cc3)c12` yielded a half-life of 2.1 min.

Compound `COc1cccc(CN(C)c2ccc([S+](=O)([O-])Nc3nccs3)cc2)c1O` has a half-life of over 30 min.

With `CCn1c(=O)cc(OCC(=O)N2CCN(c3cccc(Cl)c3)CC2)c2ccccc21` the half-life was 2.66 min.

`Cc1ccnc(NC(=S)N2CCN(c3cccc(C(F)(F)F)n3)CC2)c1` showed a half-life of 15 min.

Compound `CN(C)CCN1C(=O)c2cccc3cc(N)cc(c23)C1=O` has a half-life of over 30 min.

With `Cc1ccccc1-c1nc(NCc2ccc(-c3cccnc3)cc2)c2ccccc2n1` the half-life was 6.25 min.

For `Cc1ccccc1C(=O)N1CCc2cc(-n3cc(NC(=O)Cc4ccccc4)cn3)ccc21`, the half-life was 11 min.

`COc1ccccc1C(=O)Nc1ccccc1C(=O)Nc1cccc(C(F)(F)F)c1` gave a half-life of over 30 min.

Work on `Cc1ccc(-c2cc(C(=O)Nc3ccc(S(=O)(=O)Nc4ccc(C#N)cc4)cc3)c3ccccc3n2)cc1C` yielded a half-life of 15 min.

With `Cc1cc(C(=O)Nc2nnc(C3CCCCC3)s2)cs1` the half-life was 7.1 min.

`Cc1ccnc(N=C(N)N2CCN(c3cccc(C(F)(F)F)c3)CC2)c1` gave a half-life of 2.26 min.

Compound `COc1cc(-c2nc(Nc3ccc(F)c(F)c3)c3ccccc3n2)ccn1` has a half-life of over 30 min.

Work on `Cc1cccc(-n2ncc3c2CCCC3NC(=O)c2c(F)ccc(F)c2F)c1C` (stereo unspecified) yielded a half-life of 0.96 min.

Compound `CCOc1ccc(C2c3c(oc4ccc(C)cc4c3=O)C(=O)N2CCCN(C)C)cc1` (stereo unspecified) has a half-life of 13.6 min.

With `CCOC(=O)c1ccc(NC(=O)c2sc3nc4c(cc3c2N)N2CCC4CC2)cc1` the half-life was 1.21 min.

With `NC(=O)C1CCN(c2nc(-c3ccc(Br)cc3)cs2)CC1` the half-life was 2.06 min.

With `CC(=O)c1ccc(N[S+](=O)([O-])c2cccc(NC(=O)c3[nH]c(C)c(C(C)=O)c3C)c2)cc1` the half-life was 21 min.

`NC(=O)C1CCN(c2nc(-c3ccccc3)cs2)CC1` showed a half-life of 3.88 min.

In the case of `COc1ccc(-n2nc3c(N4CCCC(C(=O)NCCc5ccc(C)cc5)C4)nnc(C)c3c2C)cc1` (stereo unspecified), the half-life is reported as 2.6 min.

`CC(C)c1ccc2oc3nc(N)c(C(=O)O)cc3c(=O)c2c1` showed a half-life of over 30 min.

Work on `CCN1C(=O)c2ccccc2[S@](=O)c2ccc(C(=O)N[C@H](C)c3ccc(Br)cc3)cc21` yielded a half-life of 7.7 min.

Compound `COC(=O)[C@H](NC(=O)c1cc(-c2ccccc2)nc2ccccc12)c1ccccc1` has a half-life of 11 min.

In the case of `CC1=C(C(=O)Nc2nncs2)C(c2ccccc2Br)N=C(Nc2nc3ccccc3o2)N1` (stereo unspecified), the half-life is reported as over 30 min.

In the case of `Fc1cc(Nc2nc(-c3ccncc3)nc3ccccc23)ccc1-c1ccc(F)c(F)c1F`, the half-life is reported as 24 min.

`COc1ccc(-n2nc(C3CCN([S+](=O)([O-])c4cccc(C(F)(F)F)c4)CC3)[nH]c2=O)cc1` gave a half-life of 15 min.

In the case of `O=C(CCCN1CCC(n2c(=O)[nH]c3ccccc32)CC1)c1ccc(F)cc1`, the half-life is reported as 10.9 min.

In the case of `Cn1cnc(-c2nccc3c(=O)[nH]c(OCCCC(F)(F)F)nc23)c1`, the half-life is reported as 16.5 min.

Work on `COc1ccc(CN2CCN(C(=O)c3cc4c(s3)CCC4)CC2)cc1` yielded a half-life of 1.9 min.

Work on `COc1ccc(-n2nc(C3CCCN(C(=O)Cc4ccccn4)C3)[nH]c2=O)cc1` (stereo unspecified) yielded a half-life of over 30 min.

For `CCOC(=O)NNc1ccc(N(CC)CC(C)O)nn1` (stereo unspecified), the half-life was over 30 min.

With `CC1=C(C(=O)NC2CCCCC2)C(c2ccccc2Br)N=C(Nc2nc3ccccc3o2)N1` (stereo unspecified) the half-life was 7.4 min.

`NC(=O)C1CCN(c2ncc(Br)s2)CC1` gave a half-life of over 30 min.

With `FC(F)(F)c1ccc(CNc2nc(-c3ccccc3C(F)(F)F)nc3ccccc23)cc1` the half-life was over 30 min.

`Nc1c(C(=O)Nc2ccc(F)cc2)sc2nc(-c3cccs3)cc(C(F)(F)F)c12` showed a half-life of over 30 min.

Work on `Cc1cc(-c2nnc3n2CCCCC3)c(C)n1-c1ccc(Cl)cc1` yielded a half-life of 1.9 min.

Work on `CCn1cc(C(=O)O)c(=O)c2cnc(N3CCN(C(=S)Nc4ccccc4)CC3)nc21` yielded a half-life of over 30 min.

With `CSc1ccccc1N1CCN(CCCCCC(=O)NC2CCCc3ccccc32)CC1` (stereo unspecified) the half-life was 2.21 min.

`Cc1ccc(S(=O)(=O)Nc2ccccc2C(=O)Nc2ccc(-c3ccccc3)cc2)cc1` gave a half-life of 7.3 min.

In the case of `CCc1ccc(S(=O)(=O)Nc2cnccc2C(=O)Nc2nc(-c3ccccc3)cs2)cc1`, the half-life is reported as 4.4 min.

Compound `CCNC(=O)c1coc(COc2ccc3c(c2)C(c2ccc(F)cc2)N(C(=O)CC(C)C)CC3)n1` (stereo unspecified) has a half-life of 1.55 min.

In the case of `Cc1ccc(S(=O)(=O)Nc2ccccc2C(=O)Nc2nc(-c3ccccc3)cs2)cc1`, the half-life is reported as 2.4 min.

For `OCCn1cc(-c2cnc3nnn(Cc4ccc5ncccc5c4)c3n2)cn1`, the half-life was over 30 min.

Compound `O=C1CCCC2=C1C(c1[nH]ncc1Br)N=C(Nc1nc3ccccc3o1)N2` (stereo unspecified) has a half-life of 14 min.

Compound `O=C(Nc1nc(-c2ccc(F)cc2)cs1)c1ccncc1NS(=O)(=O)c1ccc(F)cc1` has a half-life of over 30 min.

With `O=C(Nc1ccccc1C(=O)Nc1ccccc1C(=O)NCc1ccco1)c1ccco1` the half-life was 11 min.

`CS(=O)(=O)N1CCN(c2nc(-c3ccc(Br)cc3)cs2)CC1` showed a half-life of over 30 min.

Compound `CC(=O)c1c(C)[nH]c(C(=O)Nc2cccc(S(=O)(=O)N3CCOCC3)c2)c1C` has a half-life of 17 min.

In the case of `Cc1ccc(S(=O)(=O)Nc2cnccc2C(=O)Nc2nc(-c3cnn(C)c3)cs2)cc1`, the half-life is reported as 13 min.

With `CCOc1ccc(N2C(=O)c3n[nH]c(-c4cccs4)c3C2c2cccc(F)c2)cc1` (stereo unspecified) the half-life was 14.2 min.

Work on `COc1ccccc1CNC(=O)CCCn1nc(C)c2c(C)n(-c3ccc(C)cc3)nc2c1=O` yielded a half-life of 3.45 min.

With `COC1C(OC(=O)c2ccc(C)[nH]2)C(O)C(Oc2ccc3c(O)c(NC(=O)c4ccc(O)c(CC=C(C)C)c4)c(=O)oc3c2Cl)OC1(C)C` (stereo unspecified) the half-life was 28.3 min.

Compound `CC(=O)Nc1ccc(C(=O)Nc2ccccc2N)cc1` has a half-life of over 30 min.

Work on `CN[C@@H]1C[C@@H](c2ccc(Cl)c(Cl)c2)c2ccccc21` yielded a half-life of 17.2 min.

`Cn1c2cc(S(C)=O)sc2c2cnn(Cc3cccc(N)c3)c(=O)c21` (stereo unspecified) gave a half-life of over 30 min.

With `COc1ccc(C(=O)Nc2nc(-c3ccccc3)cs2)c(OC)c1` the half-life was 18 min.

With `COc1ccc(-c2nc3ccccc3c(=O)n2Cc2ccco2)cc1COc1ccc(NC(C)=O)cc1` the half-life was 2.17 min.

With `COc1ccc(NC(=O)c2cc(-c3ccc[nH]3)n[nH]2)cc1OC` the half-life was over 30 min.

With `O=C1CCCC2=C1C1(CCSC1)N=C(Nc1nc3ccccc3o1)N2` (stereo unspecified) the half-life was 2.5 min.

For `COc1cccc(CNc2ccc(S(=O)(=O)Nc3ccc(C4CCNCC4)cc3)cc2)c1O`, the half-life was 29 min.

`O=S(=O)(Nc1nc2n(n1)C(c1ccccc1)C=C(c1ccc(Cl)cc1)N2)c1ccccc1` (stereo unspecified) gave a half-life of over 30 min.

For `O=C(Nc1ccc2oc(-c3cccnc3)nc2c1)c1ccc(-c2cccc(Cl)c2)o1`, the half-life was over 30 min.

In the case of `Cc1cc(SCC(=O)c2ccccc2)n2ncc(-c3ccccc3)c2n1`, the half-life is reported as 3.77 min.

In the case of `Fc1cc(Nc2nc(-c3ccncc3)nc3ccccc23)ccc1N1CCCCC1`, the half-life is reported as 5.9 min.

For `COc1ccc(S(=O)(=O)N2CCN(C(=O)C3COc4ccccc4O3)CC2)cc1` (stereo unspecified), the half-life was 7.6 min.

`CN(C)C(=O)c1nc(-c2ccc(Cl)nc2)c2ccccn12` gave a half-life of over 30 min.

In the case of `CCN(CC)C(=O)c1ccc(O)c(OC)c1`, the half-life is reported as over 30 min.

In the case of `N#Cc1ccc(NS(=O)(=O)c2ccc(NC(=O)Cc3ccc(Cl)c(Cl)c3)cc2)cc1`, the half-life is reported as over 30 min.

With `Fc1cc(Nc2nc(-c3ccncc3)nc3ccccc23)ccc1-c1cccc(OC(F)(F)F)c1` the half-life was over 30 min.

Work on `O=[S+]([O-])(Nc1ccc(-c2ccccc2)cc1)c1ccc(NCc2ccc(Cl)cc2O)cc1` yielded a half-life of 18 min.

Work on `Cc1ccc([S+](=O)([O-])n2cc(-c3ccc(-c4ccccc4)cc3)c3ccccc32)cc1` yielded a half-life of over 30 min.

Work on `O=C1CN(C(=O)CCC(=O)N2CCc3c(nc4cc(-c5ccccc5)[nH]n4c3=O)C2)c2ccccc2N1` yielded a half-life of over 30 min.

Work on `N#Cc1c(NC(=O)c2cccc3ccccc23)sc2c1CCCC2` yielded a half-life of 7.59 min.

With `Cc1cc(NS(=O)(=O)c2ccc(NC(=O)Cc3ccc(Cl)c(Cl)c3)cc2)n(C)n1` the half-life was 13 min.

For `COc1ccnc(NC(=S)N2CCN(c3cccc(C(F)(F)F)c3)CC2)c1`, the half-life was over 30 min.

In the case of `CCOC(=O)c1nn(-c2ccccc2)c(=O)c2c(N)scc12`, the half-life is reported as 2.12 min.

Work on `CC(=O)NCc1ccc(-c2csc(Nc3cc(C)cc(C)c3)n2)o1` yielded a half-life of over 30 min.

Compound `Cc1ccc(NS(=O)(=O)c2ccc3c(c2)NC(=O)CO3)cc1C` has a half-life of 3.13 min.

Compound `O=C(Nc1ncc([S+](=O)([O-])N2CCOCC2)s1)c1cccc(Br)c1` has a half-life of 23 min.

With `Cn1cc(-c2nc(Nc3ccc(F)c(F)c3)c3ccccc3n2)cn1` the half-life was 21 min.

In the case of `CC1=C(C(=O)Nc2nncs2)C2(CCCC2)N=C(Nc2nc3ccccc3o2)N1`, the half-life is reported as over 30 min.

For `O=S(=O)(Nc1nccs1)c1ccc(Nc2nc(-c3ccc(F)cc3)cs2)cc1`, the half-life was over 30 min.

For `COc1cc(Nc2nc(-c3ccncc3)nc3ccccc23)ccc1N1CCN(C)CC1`, the half-life was 11 min.

Work on `O=C([C@H](Cc1ccc(O[S+](=O)([O-])c2cccc3cnccc23)cc1)N[S+](=O)([O-])c1cccc2cnccc12)N1CCN(Cc2ccccc2)CC1` yielded a half-life of 16 min.

`O=C(NCc1ccccc1)c1cn2cc(-c3ccccc3)sc2n1` showed a half-life of 24 min.

For `COc1ccc(C2Nc3ccccc3C(=O)N2Cc2ccco2)cc1COc1ccc(NC(C)=O)cc1` (stereo unspecified), the half-life was 1.35 min and 2.57 min.

Compound `O=C(CCc1ccccc1)Nc1ccc(S(=O)(=O)Nc2nccs2)cc1` has a half-life of over 30 min.

In the case of `Fc1cc(Nc2nc(-c3ccncc3)nc3ccccc23)ccc1N1CCNCC1`, the half-life is reported as over 30 min.

For `O=C(Nc1nc(-c2ccccc2)cs1)c1ccncc1NS(=O)(=O)c1cccc2cccnc12`, the half-life was 7.4 min.

Compound `C/C=C1/CN2CC[C@@]34c5ccccc5N(C)[C@@H]3[C@@H]2C[C@@H]1[C@H]4C(=O)OC` has a half-life of 4.13 min.

In the case of `Cc1cc(SCc2sc(-c3ccc(C(F)(F)F)c(F)c3)nc2C)ccc1OCC(=O)O`, the half-life is reported as 21 min.

In the case of `C#CCNC(=O)c1nc(-c2ccc([S+](C)(=O)[O-])cc2)c2ccccn12`, the half-life is reported as over 30 min.

`CCc1nnc(NC(=O)c2nc(S(=O)(=O)Cc3ccc(C)cc3)ncc2Cl)s1` gave a half-life of 7.58 min.

Work on `Cc1ccc(C)c(S(=O)(=O)NCC2CN(Cc3ccccc3)CCO2)c1` (stereo unspecified) yielded a half-life of 1.6 min.

— PubChem BioAssay AID1508591
